Data: US20240150711A1, “PERSONALIZED REDIRECTION AND REPROGRAMMING OF T CELLS FOR PRECISE TARGETING OF TUMORS” (Dana-Farber Cancer Institute, Inc., priority 2021, published 2024)

Tested on: Tcf7
Assay: Tcf7 protein levels by intracellular flow cytometry in CD8 T cells cultured with neutralizing antibodies or added cytokines
Assay type: cell-based
Conditions: naïve CD8 T cells from wild-type mice, anti-CD3/anti-CD28 stimulation, cultured 1 week in IL2, IL7, IL15, IL21; versus isotype antibodies
Description: Next, it was sought to determine whether the effects of blocking IFN-γ signaling on the Tcf7+ phenotype could be recapitulated using a method separate from CRISPR-deletion, such as with neutralizing antibodies. As such, antibodies to both the Ifn-gamma and Ifn-gamma receptor genes were used. Naïve CD8 T cells were isolated from wild-type mice and cultured in the presence of either isotype-control or a combination of Ifn-gamma and IfngR neutralizing antibodies at various dosing levels or in the presence of added cytokines (either IFN-gamma, IFN-alpha, or IL12), then stimulated with anti-CD3/anti-CD28 antibodies and cultured for 1 week in IL2, IL7, IL15, and IL21, and Tcf7 protein levels were quantified by intracellular flow cytometry, as shown in FIG. 11.

**Q.** Which “Tcf7 expression (Tcf7 protein levels)” value does the source give for interferon-γ: added cytokine here?
**A.** Its value is “no effect on Tcf7 expression”.
